Patent US20050032713A1, “Platelet-activating factor antagonists as analgesic, anti-inflammatory, uterine contraction inhibiting, and anti-tumor agents” (priority 2002, published 2005)
“Also recorded” adds a separate entry of the source. *1 amine or outer side, *2 acyl side, *3 side chain or, on linkers, in order; H or OH if unused. Where a SMILES comes first, the peptide text is derived from it. Bridges are numbered along the chain shown (N, C = ends). Roman numbers before positions name the chains, in order. [ ]: non-standard residue; d: D form. Actinocin(9to1) = Cc1c2oc3c(C)ccc(C(=O)[*:1])c3nc-2c(C(=O)[*:2])c(N)c1=O; NMeV = CN[C@H](C(=O)O)C(C)C; Sar = CNCC(=O)O

Tests used:
Format in all cases: cell-based, rat
[1] = system: astrocyte-enriched cortical cell cultures; assay: PGE2 release (ELISA) from astrocyte-enriched cortical cell cultures exposed to PAF analogs, related lipids or AA; details: for PGE2 release into the conditioned media: various concentrations; for concentration giving peak PGE2 release: higher and lower concentrations elicited less release
Method: (§1) All experimental protocols were approved by the Massachusetts Institute of Technology institutional review committee and meet the guidelines of the National Institutes of Health. Dissociated astrocytes were cultured from cortices of postnatal day 1-2 rat pups (as described by K. D. McCarthy, et al., Preparation of separate astroglial and oligodendroglial cell cultures from rat cerebral tissue, J. Cell Biol. 85 (1980) 890-902, with minor modifications R. K. K. Lee, et al., Metabolic glutamate receptors increase amyloid precursor protein processing in astrocytes: inhibition by cyclic AMP, J. Neurochem. 68 (1997) 1830-1835.) In brief, cells from dissociated cortices were plated onto poly-L-lysine coated 35- or 100 mm culture dishes. The initial culture media, minimal essential medium (MEM, Gibco-Life Technologies; Rockville, Md.) containing 15% horse serum (BioWhittaker; Walkersville, Md.), were aspirated 2-5 h after plating to remove unattached cells and debris, and replaced with MEM containing 5% fetal bovine serum (FBS, BioWhittaker; Walkersville, Md.). Half the medium was replaced with MEM/5% FBS twice weekly. Astrocytes were kept at 37° C. in a humidified 5% CO2/95% air incubator for 9-15 days, by which time the cultures were confluent and could be used for experiments.
(§2) Mc-PAF (Biomol; Plymouth Meeting, PA) was dissolved in methanol at a stock concentration of 10 mM. PAF-16, PAF-18, lyso-PAF, AA (Cayman Chemicals), lyso-PC and PC (Sigma) were dissolved in ethanol at stock concentrations of 10 mM. All stock solutions of lipids were stored at −80° C. and were used within 6 weeks of reconstitution. BN 52021 and CV 6209 (Biomol) were dissolved in ethanol. These PAF antagonists were stored at −20° C. in stock concentrations of 100 mM. BN 50730 (Biomeasure; Milford, Mass.) was dissolved in 45% hydroxy-B-cyclodextrin (HBC). All agents were diluted in warned serum-free medium prior to cell stimulation. Equal amounts of vehicle was added to control cells.
(§3) Cells used for all experiments were established in vitro 9-15 days prior to use in experiments and were over 95% confluent. Serum-containing media were changed every 3-4 days. Cells were serum-deprived 24 hours prior to experimental treatments. Where treatment with PAF antagonists is indicated, these compounds were added 30 minutes prior to the addition of other agents.
(§4) PGE2 levels were measured by ELISA according to manufacturer's instructions (Cayman Chemicals, Ann Arbor, Mich.). Since the amount of PGE2 in fresh medium was negligible, (J. Luo, et al., Transforming growth factor B1 regulates the expression of cyclooxygenase in cultured cortical astrocytes and neurons, J. Neurochem. 71 (1998) 526-534), direct assays of the PGE2 concentration in cell-conditioned medium was used as a measurement of PGE2 secretion by cultured cells. Results were derived from at least 3 separate experiments, assayed in duplicate or triplicate (n=6-8). The reliable detection limit of this assay (i.e. sensitivity) averaged 14+/−6 pg of PGE2.

[2] = system: astrocyte-enriched cortical cell cultures; assay: Effect of PAF antagonists on mc-PAF-, lyso-PAF- and AA-induced PGE2 release from astrocytes; details: for mc-PAF-induced PGE2 release: antagonist added 30 min before mc-PAF (1 μM), 30 min, BN 50730 0.1-100 μM, BN 52021 and CV 6209 1-50 μM; for PGE2 release, antagonist administered alone: no mc-PAF
Method: as §1, §2, §3, §4

[3] = system: primary cortical astrocytes; assay: Effect of COX inhibitors on mc-PAF-induced PGE2 release from primary astrocytes (Example 3)
Method: Mc-PAF (Cayman Chemical, Ann Arbor, Mich.) was dissolved in ethanol at a stock concentration of 10 mM. Indomethacin, piroxicam, NS-398 (Biomol; Plymouth Meeting, Mass.), and SC-560 (Cayman Chemical) were dissolved in 45% hydroxy-β-cyclodextrin (HBC; Sigma, St. Louis, Mo.). Cells were serum-deprived for 24 hrs prior to experimental treatments to induce quiescence. Where treatment with inhibitors is indicated, these compounds were added 30 min prior to the addition of mc-PAF.
Direct assay of the PGE2 concentration in cell-conditioned medium was used as an index of PGE2 secretion by primary astrocytes. PGE2 levels were measured by ELISA according to manufacturer's instructions (Cayman Chemicals, Ann Arbor, Mich.), as described.
Results were derived from at least 3 separate experiments, assayed in duplicate or triplicate (n=6−8). Data were expressed as means+/−SEMs. Statistical analyses were performed using ANOVAs for comparisons between groups, followed by Fischer's PLSD post hoc comparisons by means contrast. p values <0.05 were considered statistically significant.

[4] = various inhibitor concentrations (indomethacin 1, 10, and 50 μM), 30 min prior to mc-PAF (0.1 uM) for 30 min
[5] = pre-treatment, actinomycin D 5 μg/ml, cyclohexamide 10 μg/ml, data not shown
[6] = 10, 1, 0.1, and 0.01 μM, 30 min

Which results are given for `CCCCC/C=C\C/C=C\C/C=C\C/C=C\CCCC(=O)O` [AA, arachidonic acid]?
PGE2 release ([1]; AA 0.01-10 μM, 30 minutes): increased PGE2 release; PGE2 release on co-administration with mc-PAF ([1]; high AA concentration 10 μM with mc-PAF, 30 min): no synergism; PGE2 release on co-administration with mc-PAF ([1]; low AA concentration 0.01 μM with mc-PAF (0.1, 1 or 10 μM), 30 min): additive increase

For `CCCCCCCCCCCCCCCCCCNC(=O)OCC(COC(=O)N(Cc1cccc[n+]1CC)C(C)=O)OC` (stereo not drawn) [CV 6209], which “mc-PAF-induced PGE2 release” value [2] is on record?
Its value is “no significant effect; also recorded: do not attenuate”.

And the “mc-PAF-induced PGE2 release” value ([2]; listed as CV-6209)?
The value was “did not significantly influence”.

And the “AA-induced PGE2 release” value ([2]; antagonist added 30 min prior)?
The value was “had no effect”.

And the “lyso-PAF-induced PGE2 release” value ([2]; antagonist added 30 min prior)?
Its value is “had no effect”.

And the “PGE2 release, antagonist administered alone” value [2]?
The value was “PGE2 release was increased”.

What about the “PGE2 release, antagonist administered alone” value ([2]; listed as CV-6209) of the same compound?
The value was “increased PGE2 release”.

`CS(=O)(=O)Nc1ccc([N+](=O)[O-])cc1OC1CCCCC1` [NS-398] was tested. Which “basal PGE2 release” value ([3]; NS-398 highest concentrations, 10 and 50 μM) did it give?
Its value is “prevented basal PGE2 release”.

What about the “mc-PAF-induced PGE2 release” value [3, 4] of the same compound?
The value was “completely abolished; also recorded: completely blocked”.

For `CCCCCCCCCCCCCCCCOC[C@H](COP(=O)([O-])OCC[N+](C)(C)C)OC(C)=O` [PAF-16], which “PGE2 release into the conditioned media” value ([1]; 30 min, 37° C.) is on record?
The value was “concentration-dependent increases”.

What about the “concentration giving peak PGE2 release” value ([1]; 30 min) of the same compound?
Its value is 0.1 µM.

`CCCCCCCCCCCCCCCCCCOC[C@H](COP(=O)([O-])OCC[N+](C)(C)C)OC(C)=O` [PAF-18] was tested. Which “PGE2 release into the conditioned media” value ([1]; 30 min, 37° C.) did it give?
Its value is “concentration-dependent increases”.

And the “concentration giving peak PGE2 release” value ([1]; 30 min)?
The value was 0.1 µM.

For `COc1ccc(-n2nc(C(F)(F)F)cc2-c2ccc(Cl)cc2)cc1` [SC-560], which “mc-PAF-induced PGE2 release” value [3, 4] is on record?
The value was “did not significantly influence; also recorded: did not significantly do so; also recorded: minimal influence”.

With `Cc1c2oc3c(C)ccc(C(=O)N[C@@H]4C(=O)N[C@H](C(C)C)C(=O)N5CCC[C@H]5C(=O)N(C)CC(=O)N(C)[C@@H](C(C)C)C(=O)O[C@@H]4C)c3nc-2c(C(=O)N[C@@H]2C(=O)N[C@H](C(C)C)C(=O)N3CCC[C@H]3C(=O)N(C)CC(=O)N(C)[C@@H](C(C)C)C(=O)O[C@@H]2C)c(N)c1=O` [actinomycin D] (I: T[dV]P[Sar][NMeV] / II: T[dV]P[Sar][NMeV]; ester I:1-I:C, II:1-II:C; linker I:N-II:N via Actinocin(9to1)) as the compound, how does the “mc-PAF-induced PGE2 release” value [3, 5] read?
The value was “had no effect”.

Which “mc-PAF-induced PGE2 release” value [3, 5] does the source give for `C[C@@H]1C[C@@H]([C@H](O)CC2CC(=O)NC(=O)C2)C(=O)[C@@H](C)C1` [cyclohexamide] here?
The value was “had no effect”.

Which results are given for `COc1ccc2c(c1)c(CC(=O)O)c(C)n2C(=O)c1ccc(Cl)cc1` [indomethacin]?
basal PGE2 release ([3]; indomethacin 1, 10, and 50 μM): without affecting basal PGE2 release; mc-PAF-induced PGE2 release [3, 4]: attenuated; also recorded: completely blocked

How did the “concentration at which PGE2 release was significantly increased” value ([1]; 30 min, 37° C.) turn out when `CCCCCCCCCCCCCCCCOC[C@@H](O)COP(=O)([O-])OCC[N+](C)(C)C` [lyso-PAF] was run?
Its value is 10 µM.

And the “PGE2 release into the conditioned media” value ([1]; 30 min, 37° C.)?
Its value is “concentration-dependent increases”.

With `CN1C(C(=O)Nc2ccccn2)=C(O)c2ccccc2S1(=O)=O` [piroxicam] as the compound, how does the “mc-PAF-induced PGE2 release” value ([3]; piroxicam 50 μM, effect not statistically significant) read?
The value was “attenuated some of this PGE2 release”.

And the “mc-PAF-induced PGE2 release” value ([3]; piroxicam 1 or 10 μM, 30 min prior to mc-PAF (0.1 uM))?
Its value is “had no effect”.

And the “mc-PAF-induced PGE2 release” value [3, 4]?
The value was “did not significantly do so; also recorded: minimal influence”.

With lyso-phosphatidylcholine [lyso-PC] as the compound, how does the PGE2 release [1, 6] read?
The PGE2 release was “had no effect”.

With phosphatidylcholine [PC] as the compound, how does the PGE2 release [1, 6] read?
The PGE2 release was “had no effect”.
